What was measured:
[1] = target: human activated kallikrein enzyme (Homo sapiens, UniProt P03952); experiment: Plasma kallikrein inhibition, fluorogenic PFR-AMC substrate, 500 pM activated kallikrein format; assay type: biochemical; conditions: 500 pM activated kallikrein, 300 uM PFR-AMC, 30 min preincubation, 10 min reaction; read-out: Primary Dose Response Assay: Average EC50
Outline: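 High-enzyme format of the fluorogenic peptide assay, with EC50 taken from AMC signal: 500 pM activated kallikrein, 300 uM Pro-Phe-Arg-AMC, 30 min compound preincubation and 10 min reaction, all at room temperature, pH 7.5.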

plasma kallikrein = target: T1, plasma kallikrein (Homo sapiens, UniProt P03952); experiment: Neat human plasma assay, FXIIa contact pathway-activated, PFR-AMC substrate; assay type: biochemical; conditions: citrated human plasma 78% final, 10 nM human FXIIa, 100 μM PFR-AMC; read-out: Human Plasma Assay: IC90
T1 construct: from tissue
T1 sequence (P03952 391-638 limits assumed): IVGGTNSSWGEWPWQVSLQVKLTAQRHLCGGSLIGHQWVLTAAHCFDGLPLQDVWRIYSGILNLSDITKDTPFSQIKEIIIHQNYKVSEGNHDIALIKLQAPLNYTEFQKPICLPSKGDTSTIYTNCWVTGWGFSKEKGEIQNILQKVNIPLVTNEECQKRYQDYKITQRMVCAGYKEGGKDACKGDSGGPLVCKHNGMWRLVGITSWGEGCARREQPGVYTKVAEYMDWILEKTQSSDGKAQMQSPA
T1 sequence (P03952 20-390 partner limits assumed): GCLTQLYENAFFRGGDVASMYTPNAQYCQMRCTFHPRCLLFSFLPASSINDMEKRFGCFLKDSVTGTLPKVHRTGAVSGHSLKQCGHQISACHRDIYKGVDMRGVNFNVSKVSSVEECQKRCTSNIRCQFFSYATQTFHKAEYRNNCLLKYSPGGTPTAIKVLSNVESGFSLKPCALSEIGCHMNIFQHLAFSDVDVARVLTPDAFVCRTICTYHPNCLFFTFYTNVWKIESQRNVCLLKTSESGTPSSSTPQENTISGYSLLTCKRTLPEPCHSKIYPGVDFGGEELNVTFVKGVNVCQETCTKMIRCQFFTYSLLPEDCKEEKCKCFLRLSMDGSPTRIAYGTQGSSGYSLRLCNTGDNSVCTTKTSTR
Method: To analyze inhibition of plasma kallikrein in an ex vivo setting, the potency of compounds was measure in contact pathway-activated plasma assays. In a fluorogenic peptide substrate assay, test compounds dissolved in DMSO were added to sodium citrate collected human or rat plasma in a 96-well microplate. Alternatively, citrated plasma was collected from rats administered the compounds orally or by IV. 10 nM of human FXIIa (Enzyme Research Laboratories) diluted in pKal buffer (20 mM Tris-HCl, pH 7.5, 150 mM NaCl, 1 mM EDTA, 0.1% PEG-8000, and 0.1% Triton X-100) was added to the plasma, followed by the 100 μM of the profluorescent, synthetic plasma kallikrein substrate PFR-AMC (also diluted in pKal buffer). Final plasma concentration in the reaction was 78%. Fluorescence was immediately monitored by excitation/emission wavelengths of 360 nm/480 nm respectively over a period of 5 minutes in a microplate reader. The resulting linear increase in fluorescence emission (reflecting pKal proteolysis of PFR-AMC substrate) was fit to extract a proteolytic rate (fluorescent units over time), and this rate was subsequently plotted against compound inhibitor concentration. Resulting plots were fit to a standard 4-parameter IC50/IC90 equation to determine min/max values, IC50/90, and slope. All experimental steps were performed at room temperature. Table 50 provides results of the assay.

human activated kallikrein enzyme, sequence (P03952 391-638 limits assumed): as the sequence (P03952 391-638 limits assumed) above
human activated kallikrein enzyme, sequence (P03952 20-390 partner limits assumed): as the sequence (P03952 20-390 partner limits assumed) above

| EC50 [1] | IC90 (plasma kallikrein) | Compound |
| --- | --- | --- |
| < 1 nM | 10000 to 48000 nM | NCc1cc(C2CC2)cn2cc(CNc3ccnc(NC(=O)[C@H]4C[C@@H]4c4cccc(Cl)c4)c3)nc12 (racemic) [Example 120, rac-(1S*,2S*)—N-(4-(((8-(aminomethyl)-6-cyclopropylimidazo[1,2-a]pyridin-2-yl)methyl)amino)pyridin-2-yl)-2-(3-chlorophenyl)cyclopropane-1-carboxamide] |
| < 1 nM | 10000 to 48000 nM | CC(C)(O)c1cc(C2CC2)cn2cc(CNc3ccnc(NC(=O)[C@H]4C[C@@H]4c4cc(Cl)ccc4C#N)c3)nc12 (racemic) [Example 131, rac-(1S*,2S*)-2-(5-chloro-2-cyanophenyl)-N-(4-(((6-cyclopropyl-8-(2-hydroxypropan-2-yl)imidazo[1,2-a]pyridin-2-yl)methyl)amino)pyridin-2-yl)cyclopropane-1-carboxamide] |
| < 1 nM | 400 to 1500 nM | CN1CCN(c2cc(C3CC3)cn3cc(CNc4ccnc(NC(=O)[C@@H]5C[C@H]5c5cc(Cl)ccc5C#N)c4)nc23)CC1 (racemic) [Example 143, rac-(1S*,2S*)-2-(5-chloro-2-cyanophenyl)-N-(4-(((6-cyclopropyl-8-(4-methylpiperazin-1-yl)imidazo[1,2-a]pyridin-2-yl)methyl)amino)pyridin-2-yl)cyclopropane-1-carboxamide] |
| < 1 nM | 10000 to 48000 nM | O=C(Nc1cc(NCc2cn3cc(C4CC4)ccc3n2)ccn1)[C@H]1C[C@@H]1c1cc(Cl)ccc1-n1cnnn1 (racemic) [Example 287, rac-(1S*,2S*)-2-(5-chloro-2-(1H-tetrazol-1-yl)phenyl)-N-(4-(((6-cyclopropylimidazo[1,2-a]pyridin-2-yl)methyl)amino)pyridin-2-yl)cyclopropane-1-carboxamide] |
| < 1 nM | 1500 to 10000 nM | N#Cc1ccc(Cl)cc1[C@H]1C[C@@H]1C(=O)Nc1cc(NCc2cn3cc(C4CC4)cc(COCCO)c3n2)ccn1 (racemic) [Example 289, rac-(1S*,2S*)-2-(5-chloro-2-cyanophenyl)-N-(4-(((6-cyclopropyl-8-((2-hydroxyethoxy)methyl)imidazo[1,2-a]pyridin-2-yl)methyl)amino)pyridin-2-yl)cyclopropane-1-carboxamide] |
| < 1 nM | 10000 to 48000 nM | O=C(Nc1cc(NCc2cn3cc(C4CC4)cc(C4(F)COC4)c3n2)ccn1)[C@H]1C[C@@H]1c1cccc(Cl)c1 (racemic) [Example 294, rac-(1S*,2S*)-2-(3-chlorophenyl)-N-(4-(((6-cyclopropyl-8-(3-fluorooxetan-3-yl)imidazo[1,2-a]pyridin-2-yl)methyl)amino)pyridin-2-yl)cyclopropane-1-carboxamide] |
| < 1 nM | 400 to 1500 nM | Cc1ccnc([C@H]2C[C@@H]2C(=O)Nc2cc(NCc3cn4cc(C5CC5)cc(S(C)(=O)=O)c4n3)ncn2)n1 (racemic) [Example 322, rac-(1S*,2S*)—N-(6-(((6-cyclopropyl-8-(methylsulfonyl)imidazo[1,2-a]pyridin-2-yl)methyl)amino)pyrimidin-4-yl)-2-(4-methylpyrimidin-2-yl)cyclopropane-1-carboxamide] |
| 1 to 10 nM | 10000 to 48000 nM | CC(C)(O)c1cc(C2CC2)cn2cc(CNc3cc(NC(=O)[C@H]4C[C@@H]4c4cc(Cl)ccc4C#N)ncn3)nc12 (racemic) [Example 337, (rac-(1S*,2S*))-2-(5-chloro-2-cyanophenyl)-N-(6-(((6-cyclopropyl-8-(2-hydroxypropan-2-yl)imidazo[1,2-a]pyridin-2-yl)methyl)amino)pyrimidin-4-yl)cyclopropane-1-carboxamide] |
| < 1 nM | 1500 to 10000 nM | Cc1cc(NCc2cn3cc(C4CC4)ccc3n2)cc(NC(=O)[C@H]2C[C@@H]2c2cc(Cl)ccc2C#N)n1 (racemic) [Example 342, rac-(1S*,2S*)-2-(5-chloro-2-cyanophenyl)-N-(4-(((6-cyclopropylimidazo[1,2-a]pyridin-2-yl)methyl)amino)-6-methylpyridin-2-yl)cyclopropane-1-carboxamide] |

From patent US20240228488A1 (TAKEDA PHARMACEUTICAL COMPANY LIMITED, priority 2021, published 2024)
